Measurements from US20250382556A1, “MODULATION OF THE BRANCHED-CHAIN METABOLITE CONTENT OF FRUITS AND VEGETABLES” (BOARD OF TRUSTEES OF MICHIGAN STATE UNIVERSITY, priority 2024, published 2025).

What was measured:
banana pulp [1] = assay: Free amino acid content of banana pulp via UPLC-MS/MS after AHAS inhibitor treatment; set-up: species or system Musa spp. AAA group, Cavendish subgroup, cv. Valery; key to free asparagine content compared to control / free glutamine content compared to control / free histidine content compared to control / free isoleucine content compared to control / free lysine content compared to control / free methionine content compared to control / free phenylalanine content compared to control / free threonine content compared to control / free tryptophan content compared to control / free arginine content compared to control: —: Dash indicates no significant difference between treatments
Method: (§1) In the first method, mature green ‘Valery’ fruit were cut into ˜1 cm^2 sections, 2-mm thick, from transverse sections of fruit not treated with ethylene. Care was taken such that one edge of the square was from the edge of the pulp, thus representing an undisturbed or ‘live edge’ of cells that should be able to maintain unhindered gas exchange. Pulp sections were prepared in vials as above described for apples. Treatment solution: 0.5 mM halosulfuron-methyl (methyl 3-chloro-5-(4,6-dimethoxypyrimidin-2-ylcarbamoylsulfamoyl)-1-methylpyrazole-4-carboxylate, made from SANDEA®, Gowan Co. 75% w/w active ingredient; 0.1% Tween 20). Ripening was induced by injection of 1 μL ethylene into the vial's 20-mL headspace. The following day the vials were vented for 15 min before having the Mininert valve (Valco Instruments Co. Inc.) replaced on the vial but with a needle inserted to allow for gas diffusion. Daily for the following two days, 20 μL of freshly made inhibitor or water solution was added onto the pulp. The needles were again kept in the valves to maintain gas diffusion. The next day, and thus four days since initially preparing the vials, the needles were removed, and the vials were sealed and incubated for at least 1 hour at room temperature (22° C.) before headspace sampling.
After volatile analysis, apple peel disks, collected peel of flowering quince, and ‘Valery’ pulp section samples were held at −80° C. for further amino acid analysis.
Frozen samples were ground to a powder in liquid nitrogen-chilled mortar and pestles. About 500 mg of tissue was vortexed for 10 sec in 2 mL of room temperature (22° C.) extraction solution (1:1:1 water:acetonitrile:ethanol, v/v/v) spiked with 2 nmoles of U-^13C,^15N labeled amino acids (MilliporeSigma) as internal standards and heated for 15 min in a 65° C. water bath. Extracts were briefly chilled on ice before centrifugation at 4400×g for 15 min at 4° C. The supernatant was filtered by centrifugation (0.2 μm nylon centrifugal filter; Costar, Corning) at 21000×g for 5 min at room temperature. 10 μL of the filtrate was transferred to an autosampler vial and diluted 100-fold with 990 μL of 10.1 mM perfluorohexanoic acid (PFHA) spiked with […] of internal standard. Thus the final concentration of internal standard was ˜2 μM.
An amino acid standard series was prepared from a premade mixture (MilliporeSigma, AAS18) that contained equal molar amounts of cystine and all 20 proteinogenic amino acids save for tryptophan, asparagine, glutamine, and cysteine. An equal molar mixture of tryptophan, asparagine, glutamine, and cysteine was subsequently prepared. To avoid dilution errors or artefacts from differing buffers, these amino acid stocks were aliquoted and desiccated such that a five-part standard series ranging from 250 μM to 25 nM would be produced upon resuscitation with 10 μL of spiked extraction buffer and 990 μL spiked PFHA solution.
Samples and amino acids were held overnight at −20° C. before analysis. Amino acids were analyzed with a Xevo TQ-S Micro UPLC (H-Class)-MS/MS (Waters) at the Michigan State University Mass Spectrometry and Metabolomics Core. Conditions were as follows. HPLC column: Acquirt UPLC HSS T3, 2.1×100 mm, 1.7 μm particle size (Waters), with a 0.2 μm pre-column filter (Waters). Mobile phase: A) 10 mM PFHA in water, B) acetonitrile. LC gradient: linear gradient, slope setting=6, flow rate=0.3 mL·min^−1, step 1) 0 min, 100% A, 0% B, 2) 1 min, 100% A, 0% B, 3) 8 min, 35% A, 65% B, 4) 8.01 min, 10% A, 90% B, 5) 9 min, 10% A, 90% B, 6) 9.01 min, 100% A, 0% B, 7) 13 min, 100% A, 0% B. Column temp: 40° C. Autosampler temp: 10° C. Injection volume: 10 μL. Tune parameters: electrospray ionization, standard ESI probe, capillary voltage=+1.0 kV, source temp=120° C., desolvation temp=350° C., desolvation gas=800 L·hr^−1, cone gas=40 L·hr^−1. […]

banana pulp [2] = assay: Headspace volatile ester emissions of banana pulp sections treated with AHAS inhibitor; set-up: species or system Musa spp. AAA group, Cavendish subgroup, cv. Valery; key to 1-methylbutyl acetate emissions compared to control: —: Dash indicates no significant difference between treatments
Excerpt: Banana fruit at an early stage of ripening were infiltrated with AHAS inhibitors by two means. The first method was used for the effects of sulfonylureas on volatile and amino acid content, whereas the second was used to investigate the recovery of sulfonylurea-treated fruits after precursor application.
as §1
Headspace volatiles from small tissue samples incubated in 22 mL vials were adsorbed for 30 s using a solid-phase micro extraction (SPME) fiber (65 μm PDMS-DVB; Supelco Analytical). The SPME fiber was then directly desorbed for 1 min in the injection port of a gas chromatograph (GC; HP-6890, Hewlett-Packard) coupled to a time-of-flight mass spectrometer (MS; Pegasus II, LECO). Whole fruits and banana slices were incubated for 20 min at room temperature (22° C.) in 1-L sealed Teflon jars before a 15-s, or 3-min adsorption and 1- or 2-min desorption. Adsorption times were adjusted to ensure instrument responses were in the linear range. All desorbed volatiles were cryofocused at the beginning of the column by immersing said region of the column in liquid nitrogen. After the desorption period, the run was initiated and the liquid nitrogen removed.
The conditions of the system were as follows. Injection port: 200° C., splitless, ultra-purified helium (99.999%) carrier gas, front inlet flow 1.5 mL·min^−1 constant, 10 mL·min^−1 purge flow, 11.5 mL·min^−1 total flow. Oven: initial temperature 40° C. for 0 min, ramped by 43° C.·min^−1 to 185° C. for 0 min. Column: HP-5 MS, 30 m×0.25 mm i.d., 0.25 μm film thickness (Agilent). Transfer line temperature 225° C. MS: Electron ionization (−70 eV), ion source temperature 200° C., solvent delay 50 sec, m/z range 29 to 400, detector voltage 1500 V, data collection rate 20 Hz.
Compounds were identified by comparison of the retention time and mass spectrum against authenticated reference standards and spectra (National Institute of Standards and Technology Mass Spectral Search Program Version 2.0, 2001). Volatiles were quantified by calibration with a standard of 59 authenticated, high-purity compounds (Sigma-Aldrich Co. and Fluka Chemical) including the target compounds. The standard was made by placing 0.5 μL of an equal-part mixture of the neat compounds onto a disc of filter paper before quickly placing the filter paper into a 4-L sealed flask fitted with a Mininert valve (for SPME fiber access, and allowed to vaporize for at least 6 hours. SPME adsorption and desorption times of the standard matched that of the samples quantified (e.g., 30-s adsorption, 1 min desorption when quantifying samples in 22-mL vials).
Statistical analysis was performed using SciPy (v1.6.2), RStudio (v2023.03.0+386), or Microsoft Excel (v16.89). […]

[3] = system: ‘Red Delicious’ apple fruit; assay: Physiology of MCP-treated stored apple fruit (respiration, firmness); format: in vivo, Malus x domestica Borkh.; conditions: Red Delicious after five months storage in air at 0° C. and warming
Method: ‘Gala’, ‘Empire’, ‘Jonagold’, and ‘Red Delicious’ apple fruit (Malus x domestica Borkh.) were harvested from local orchards at commercial maturity and transported to the laboratory during the 2022 and 2023 seasons. As determined by previously described methods, the fruit were at the developmental onset of ripening with no subjectively discernible aroma. ‘Gala’ and ‘Empire’ fruits began treatment immediately after arrival in the laboratory. ‘Jonagold’ fruit were held in air at 0° C. for two days before transfer to controlled atmosphere (CA) storage (1.5 O2, 3% CO2, 0° C.) and then kept in CA for twelve days to suppress ethylene action before the initiation of inhibitor treatment. ‘Red Delicious’ fruit were treated with 50 nL·^−1 1-methylcyclopropene (MCP) for 24 h at 0° C. The MCP was evolved from a commercial MCP product (EASYFRESH®, Fine Americas) in sealed chambers two days after harvest as previously described. The fruit were then stored in air at 0° C. for five months and were warmed to 22° C. for 24 h before sulfonylurea treatment. This low-dosage MCP treatment had very mild effects on physiology. […] Based on the internal ethylene concentration (˜100 μL·L^−1) and the total ester production (elevated and trending upwards), the fruit were considered to be of an advanced stage of ripeness, but not senescent. […]

[4] = Valery banana pulp sections, 0.5 mM

## COC(=O)c1c(Cl)nn(C)c1S(=O)(=O)NC(=O)Nc1nc(OC)cc(OC)n1 [halosulfuron-methyl, methyl 3-chloro-5-(4,6-dimethoxypyrimidin-2-ylcarbamoylsulfamoyl)-1-methylpyrazole-4-carboxylate]
Banana pulp [1]; Valery banana fruit
  isoleucine levels: unchanged
  total content of free amino acids: increased
  valine and leucine less abundant: 57.6%
Banana pulp [1]; [4]
  free alanine content compared to control: 407.4 ± 66.8%
  free arginine content compared to control: —
  free asparagine content compared to control: —
  free aspartate content compared to control: 332.7 ± 30.1%
  free cysteine content compared to control: 264.2 ± 46.6%
  free glutamate content compared to control: 217.4 ± 23.9%
  free glutamine content compared to control: —
  free glycine content compared to control: 173.1 ± 39.9%
  free histidine content compared to control: —
  free isoleucine content compared to control: —
  free leucine content compared to control: 65.8 ± 6.1%
  free lysine content compared to control: —
  free methionine content compared to control: —
  free phenylalanine content compared to control: —
  free proline content compared to control: 188.4 ± 18.7%
  free serine content compared to control: 186.2 ± 14.5%
  free threonine content compared to control: —
  free tryptophan content compared to control: —
  free tyrosine content compared to control: 142.3 ± 25.1%
  free valine content compared to control: 14.3 ± 0.8%
  total free amino acid content compared to control: 150.6 ± 13.7%
Banana pulp [2]; Valery banana fruit
  ethyl acetate, butyl acetate, and butyl butanoate collectively reduced: 95.0%
  reduction in the total content of iso-branched-chain esters in the headspace: 90.3%
  sec-branched esters or related volatiles (2-pentanone, 2-pentanol, 1-methylbutyl acetate, 1-methylbutyl butanoate) affected by inhibitor treatment: None
Banana pulp [2]; [4]
  1-methylbutyl acetate emissions compared to control: —
  2-methylpropyl acetate (val) emissions compared to control: 2.0 ± 0.7%
  3-methylbutyl acetate (leu) emissions compared to control: 10.4 ± 5.4%
  butyl acetate emissions compared to control: 3.9 ± 2.7%
  ethyl acetate emissions compared to control: 3.9 ± 2.4%
  sum of anteiso- and iso-branched-chain esters emissions compared to control: 9.7 ± 3.6%

## CC1=CC1 [MCP, 1-methylcyclopropene]
[3]
  respiration rate of MCP-treated fruit relative to untreated fruit: 88.7%
